# Test results: patent US20230391768A2, “IMIDAZOPYRIDINE DERIVATIVES AND AZA-IMIDAZOPYRIDINE DERIVATIVES AS JANUS KINASE 2 INHIBITORS AND USES THEREOF” (Dana-Farber Cancer Institute, Inc., priority 2018, published 2023)
# Key:
# Test in all cases: KINOMEscan
# Assay type in all cases: binding
# Details in all cases: read-out: percent of control
# [1] = target: IRAK4 (Homo sapiens (Human), UniProt Q9NWZ3)
# Protocol: (§1) In vitro profiling of Compound I-2 (1 μM) was performed using the DiscoveRx KINOMEscan® platform.
# [2] = target: PRKCI (Homo sapiens (Human), UniProt P41743)
# PRKCI, sequence (P41743 whole entry): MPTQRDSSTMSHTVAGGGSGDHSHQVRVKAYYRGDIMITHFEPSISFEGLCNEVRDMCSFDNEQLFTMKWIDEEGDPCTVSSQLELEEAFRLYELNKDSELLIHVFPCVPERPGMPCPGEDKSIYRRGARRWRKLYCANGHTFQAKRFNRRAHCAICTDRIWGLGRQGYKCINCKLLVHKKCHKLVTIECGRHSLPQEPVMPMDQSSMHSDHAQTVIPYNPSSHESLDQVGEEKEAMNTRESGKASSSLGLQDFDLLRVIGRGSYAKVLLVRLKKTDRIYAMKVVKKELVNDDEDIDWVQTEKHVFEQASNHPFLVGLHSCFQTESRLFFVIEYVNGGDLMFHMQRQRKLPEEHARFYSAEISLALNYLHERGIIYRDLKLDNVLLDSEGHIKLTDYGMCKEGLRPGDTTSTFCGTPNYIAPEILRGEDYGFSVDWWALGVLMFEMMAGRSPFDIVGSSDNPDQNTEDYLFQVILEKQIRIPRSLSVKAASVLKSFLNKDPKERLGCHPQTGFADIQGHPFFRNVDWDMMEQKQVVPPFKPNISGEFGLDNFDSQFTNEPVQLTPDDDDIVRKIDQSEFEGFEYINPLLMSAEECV
# Protocol: as §1
# [3] = target: ABL1(F317I)-phosphorylated (Homo sapiens (Human), UniProt P00519, F317I)
# Protocol: as §1
# [4] = target: ABL1(Q252H)-phosphorylated (Homo sapiens (Human), UniProt P00519, Q252H)
# Protocol: as §1
# [5] = target: CDK2 (Homo sapiens (Human), UniProt P24941)
# Protocol: as §1
# [6] = target: p38-delta (Homo sapiens (Human), UniProt O15264)
# Protocol: as §1
# [7] = target: TGFBR1 (Homo sapiens (Human), UniProt P36897)
# TGFBR1, sequence (P36897 34-503): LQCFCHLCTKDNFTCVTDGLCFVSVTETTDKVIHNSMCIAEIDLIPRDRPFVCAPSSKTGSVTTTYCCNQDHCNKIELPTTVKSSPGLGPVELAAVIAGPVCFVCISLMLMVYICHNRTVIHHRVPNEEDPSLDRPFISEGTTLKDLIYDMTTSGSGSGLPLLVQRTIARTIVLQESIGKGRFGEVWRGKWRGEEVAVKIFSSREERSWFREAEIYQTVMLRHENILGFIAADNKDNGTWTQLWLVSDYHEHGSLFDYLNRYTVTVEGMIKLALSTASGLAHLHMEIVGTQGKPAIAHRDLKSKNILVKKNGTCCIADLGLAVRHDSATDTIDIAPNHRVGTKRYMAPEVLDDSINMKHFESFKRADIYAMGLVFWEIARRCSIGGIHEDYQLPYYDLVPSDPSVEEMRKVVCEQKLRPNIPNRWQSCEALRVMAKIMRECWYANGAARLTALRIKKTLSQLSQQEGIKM
# Protocol: as §1
# [8] = target: MAPKAPK5 (Homo sapiens (Human), UniProt Q8IW41)
# Protocol: as §1
# [9] = target: CLK3 (Homo sapiens (Human), UniProt P49761)
# Protocol: as §1
# [10] = target: ERK2 (Homo sapiens (Human), UniProt P28482)
# Protocol: as §1
# [11] = target: ASK1 (Homo sapiens (Human), UniProt Q99683)
# Protocol: as §1
# [12] = target: ZAK (Homo sapiens (Human), UniProt Q9NYL2)
# ZAK, sequence (Q9NYL2 whole entry): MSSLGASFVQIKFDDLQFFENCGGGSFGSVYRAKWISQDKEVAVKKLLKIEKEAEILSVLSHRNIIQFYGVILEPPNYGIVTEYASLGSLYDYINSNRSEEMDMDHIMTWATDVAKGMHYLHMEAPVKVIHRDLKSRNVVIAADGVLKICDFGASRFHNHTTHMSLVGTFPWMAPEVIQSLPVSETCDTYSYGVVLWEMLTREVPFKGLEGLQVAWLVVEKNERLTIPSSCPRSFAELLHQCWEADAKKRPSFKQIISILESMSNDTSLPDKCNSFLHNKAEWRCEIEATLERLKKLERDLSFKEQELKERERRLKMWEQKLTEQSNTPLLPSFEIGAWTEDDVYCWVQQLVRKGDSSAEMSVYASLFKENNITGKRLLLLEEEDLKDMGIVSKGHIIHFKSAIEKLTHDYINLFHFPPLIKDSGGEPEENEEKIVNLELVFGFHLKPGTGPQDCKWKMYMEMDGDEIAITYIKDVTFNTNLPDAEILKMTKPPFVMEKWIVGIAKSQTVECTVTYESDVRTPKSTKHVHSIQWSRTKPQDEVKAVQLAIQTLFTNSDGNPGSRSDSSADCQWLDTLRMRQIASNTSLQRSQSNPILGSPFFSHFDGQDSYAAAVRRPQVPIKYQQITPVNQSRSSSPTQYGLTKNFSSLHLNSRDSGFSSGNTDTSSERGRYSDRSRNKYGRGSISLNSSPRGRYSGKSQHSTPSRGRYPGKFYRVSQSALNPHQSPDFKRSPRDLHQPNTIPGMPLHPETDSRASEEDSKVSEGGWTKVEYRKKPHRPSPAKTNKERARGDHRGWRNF
# Protocol: as §1
# [13] = target: JAK1 (JH1domain-catalytic) (Homo sapiens (Human), UniProt P23458)
# Protocol: as §1
# [14] = target: MUSK (Homo sapiens (Human), UniProt O15146)
# MUSK, sequence (O15146 24-869): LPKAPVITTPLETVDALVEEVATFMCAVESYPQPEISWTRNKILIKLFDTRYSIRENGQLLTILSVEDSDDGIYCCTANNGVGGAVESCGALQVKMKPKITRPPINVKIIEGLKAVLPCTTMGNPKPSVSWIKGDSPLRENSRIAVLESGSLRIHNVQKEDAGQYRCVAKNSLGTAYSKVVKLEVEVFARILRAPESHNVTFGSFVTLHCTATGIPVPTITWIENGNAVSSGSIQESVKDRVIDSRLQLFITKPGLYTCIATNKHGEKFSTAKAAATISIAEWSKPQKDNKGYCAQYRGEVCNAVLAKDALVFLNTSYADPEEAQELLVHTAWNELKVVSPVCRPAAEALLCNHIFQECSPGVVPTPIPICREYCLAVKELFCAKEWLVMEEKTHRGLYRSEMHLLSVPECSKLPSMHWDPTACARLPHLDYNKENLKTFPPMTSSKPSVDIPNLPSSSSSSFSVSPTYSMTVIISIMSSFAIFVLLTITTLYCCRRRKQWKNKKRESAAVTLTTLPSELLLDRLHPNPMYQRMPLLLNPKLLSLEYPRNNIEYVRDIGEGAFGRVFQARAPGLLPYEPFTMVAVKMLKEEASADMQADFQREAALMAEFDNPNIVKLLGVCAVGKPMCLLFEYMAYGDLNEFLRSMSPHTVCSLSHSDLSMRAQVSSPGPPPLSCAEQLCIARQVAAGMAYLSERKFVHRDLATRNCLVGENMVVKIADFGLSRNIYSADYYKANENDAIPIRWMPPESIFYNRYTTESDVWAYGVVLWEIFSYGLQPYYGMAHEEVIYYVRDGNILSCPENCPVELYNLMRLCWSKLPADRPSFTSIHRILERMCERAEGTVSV
# Protocol: as §1
# [15] = target: MAP4K3 (Homo sapiens (Human), UniProt Q8IVH8)
# Protocol: as §1
# [16] = target: CAMK2B (Homo sapiens (Human), UniProt Q13554)
# CAMK2B, sequence (Q13554 whole entry): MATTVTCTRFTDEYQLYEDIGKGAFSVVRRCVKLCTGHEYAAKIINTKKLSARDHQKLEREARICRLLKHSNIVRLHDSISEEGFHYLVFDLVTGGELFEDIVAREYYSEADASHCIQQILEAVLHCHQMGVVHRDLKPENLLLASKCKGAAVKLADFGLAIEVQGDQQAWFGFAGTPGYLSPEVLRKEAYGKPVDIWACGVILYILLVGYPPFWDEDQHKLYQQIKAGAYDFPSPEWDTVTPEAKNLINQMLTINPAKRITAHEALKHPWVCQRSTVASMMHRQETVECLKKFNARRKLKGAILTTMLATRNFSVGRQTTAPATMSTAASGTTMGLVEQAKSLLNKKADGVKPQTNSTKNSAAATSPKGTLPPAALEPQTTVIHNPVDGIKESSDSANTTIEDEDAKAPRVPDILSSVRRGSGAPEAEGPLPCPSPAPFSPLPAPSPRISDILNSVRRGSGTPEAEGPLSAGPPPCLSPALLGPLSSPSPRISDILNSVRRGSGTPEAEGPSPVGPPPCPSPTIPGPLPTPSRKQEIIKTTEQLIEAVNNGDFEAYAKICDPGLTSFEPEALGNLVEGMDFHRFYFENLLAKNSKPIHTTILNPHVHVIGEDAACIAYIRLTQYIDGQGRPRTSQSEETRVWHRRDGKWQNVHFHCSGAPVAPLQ
# Protocol: as §1
# [17] = target: PIK3CA(E542K) (Homo sapiens (Human), UniProt P42336, E542K)
# Protocol: as §1
# [18] = target: FGFR1 (Homo sapiens (Human), UniProt P11362)
# Protocol: as §1
# [19] = target: MAP3K3 (Homo sapiens (Human), UniProt Q99759)
# MAP3K3, sequence (Q99759 whole entry): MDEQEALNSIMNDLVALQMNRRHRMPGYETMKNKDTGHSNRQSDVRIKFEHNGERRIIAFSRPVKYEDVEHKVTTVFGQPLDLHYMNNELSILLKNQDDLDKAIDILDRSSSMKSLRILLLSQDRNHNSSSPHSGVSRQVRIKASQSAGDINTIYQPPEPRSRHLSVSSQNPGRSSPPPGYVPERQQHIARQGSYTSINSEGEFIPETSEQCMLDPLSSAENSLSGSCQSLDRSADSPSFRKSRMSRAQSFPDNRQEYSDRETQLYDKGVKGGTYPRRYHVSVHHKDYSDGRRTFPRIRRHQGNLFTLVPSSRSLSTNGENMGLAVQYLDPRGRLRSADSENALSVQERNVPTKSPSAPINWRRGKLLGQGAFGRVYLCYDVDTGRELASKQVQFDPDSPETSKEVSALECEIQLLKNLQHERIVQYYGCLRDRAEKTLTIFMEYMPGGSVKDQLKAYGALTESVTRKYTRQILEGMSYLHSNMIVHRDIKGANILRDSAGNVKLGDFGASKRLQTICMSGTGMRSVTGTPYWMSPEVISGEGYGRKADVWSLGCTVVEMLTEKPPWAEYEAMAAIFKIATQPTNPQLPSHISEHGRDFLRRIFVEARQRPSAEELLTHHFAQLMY
# Protocol: as §1
# [20] = target: AAKI (Homo sapiens (Human), UniProt Q2M2I8)
# Protocol: as §1
# [21] = target: PRKCE (Homo sapiens (Human), UniProt Q02156)
# PRKCE, sequence (Q02156 whole entry): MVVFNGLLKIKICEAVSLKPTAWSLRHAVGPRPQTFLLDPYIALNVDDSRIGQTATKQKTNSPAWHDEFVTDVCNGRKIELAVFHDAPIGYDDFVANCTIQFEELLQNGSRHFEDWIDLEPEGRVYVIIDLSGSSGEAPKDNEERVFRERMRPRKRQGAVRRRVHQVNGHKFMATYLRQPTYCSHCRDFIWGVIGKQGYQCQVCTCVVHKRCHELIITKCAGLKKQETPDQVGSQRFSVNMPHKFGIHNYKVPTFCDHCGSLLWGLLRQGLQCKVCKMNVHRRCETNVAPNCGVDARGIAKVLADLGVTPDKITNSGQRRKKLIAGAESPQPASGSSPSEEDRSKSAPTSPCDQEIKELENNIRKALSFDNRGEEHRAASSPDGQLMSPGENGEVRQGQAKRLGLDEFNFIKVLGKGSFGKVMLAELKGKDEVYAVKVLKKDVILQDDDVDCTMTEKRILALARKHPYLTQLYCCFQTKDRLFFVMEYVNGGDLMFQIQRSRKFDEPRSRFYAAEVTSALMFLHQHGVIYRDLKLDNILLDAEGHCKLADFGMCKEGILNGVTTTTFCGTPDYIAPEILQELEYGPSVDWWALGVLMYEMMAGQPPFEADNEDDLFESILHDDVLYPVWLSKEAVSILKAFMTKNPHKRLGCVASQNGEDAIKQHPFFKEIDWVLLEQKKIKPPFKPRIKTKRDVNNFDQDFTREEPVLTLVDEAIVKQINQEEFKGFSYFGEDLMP
# Protocol: as §1
# [22] = target: EIF2AK1 (Homo sapiens (Human), UniProt Q9BQI3)
# Protocol: as §1
# [23] = target: EGFR(G719S) (Homo sapiens (Human), UniProt P00533, G719S)
# Protocol: as §1
# [24] = target: PYK2 (Homo sapiens (Human), UniProt Q14289)
# Protocol: as §1
# [25] = target: EPHB6 (Homo sapiens (Human), UniProt O15197)
# Protocol: as §1
# [26] = target: CHEK1 (Homo sapiens (Human), UniProt O14757)
# Protocol: as §1
# [27] = target: ERK1 (Homo sapiens (Human), UniProt P27361)
# Protocol: as §1
# [28] = target: PLK2 (Homo sapiens (Human), UniProt Q9NYY3)
# Protocol: as §1
# [29] = target: PIKFYVE (Homo sapiens (Human), UniProt Q9Y2I7)
# Protocol: as §1
# [30] = target: BIKE (Homo sapiens (Human), UniProt Q9NSY1)
# Protocol: as §1
# [31] = target: TSSK3 (Homo sapiens (Human), UniProt Q96PN8)
# TSSK3, sequence (Q96PN8 whole entry): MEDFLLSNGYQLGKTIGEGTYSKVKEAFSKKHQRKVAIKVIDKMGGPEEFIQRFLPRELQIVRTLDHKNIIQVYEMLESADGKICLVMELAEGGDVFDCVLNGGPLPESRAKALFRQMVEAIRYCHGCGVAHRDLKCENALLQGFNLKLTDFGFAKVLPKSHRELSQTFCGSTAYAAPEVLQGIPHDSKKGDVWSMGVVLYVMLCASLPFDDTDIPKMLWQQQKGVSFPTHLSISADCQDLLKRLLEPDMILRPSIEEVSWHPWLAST
# Protocol: as §1
# [32] = target: FGFR4 (Homo sapiens (Human), UniProt P22455)
# Protocol: as §1
# [33] = target: ACVR2A (Homo sapiens (Human), UniProt P27037)
# Protocol: as §1
# [34] = target: RSK4 (Kin.Dom.2-C-terminal) (Homo sapiens (Human), UniProt Q9UK32)
# Protocol: as §1
# [35] = target: ROS1 (Homo sapiens (Human), UniProt P08922)
# Protocol: as §1
# [36] = target: CDK7 (Homo sapiens (Human), UniProt P50613)
# Protocol: as §1
# [37] = target: OSR1 (Homo sapiens (Human), UniProt O95747)
# Protocol: as §1
# [38] = target: PKMYT1 (Homo sapiens (Human), UniProt Q99640)
# Protocol: as §1
smiles,measurement,setting,value
"CCN1CCN(Cc2cc(NC(=O)c3ccc(C)c(-c4ccc5nc(NC(=O)C6CC6)cn5c4)c3)cc(C(F)(F)F)c2)CC1 [Compound I-6, 3-(2-(cyclopropanecarboxamido)imidazo[1,2-a]pyridin-6-yl)-N-(3-((4-ethylpiperazin-1-yl)methyl)-5-(trifluoromethyl)phenyl)-4-methylbenzamide]",remaining binding at 1 µM,[1],33%
same,remaining binding at 1 µM,[2],100%
same,remaining binding at 1 µM,[3],9.4%
same,remaining binding at 1 µM,[4],0.6%
same,remaining binding at 1 µM,[5],60%
same,remaining binding at 1 µM,[6],32%
same,remaining binding at 1 µM,[7],100%
same,remaining binding at 1 µM,[8],100%
same,remaining binding at 1 µM,[9],84%
same,remaining binding at 1 µM,[10],100%
same,remaining binding at 1 µM,[11],100%
same,remaining binding at 1 µM,[12],6.2%
same,remaining binding at 1 µM,[13],20%
same,remaining binding at 1 µM,[14],2.1%
same,remaining binding at 1 µM,[15],19%
same,remaining binding at 1 µM,[16],100%
same,remaining binding at 1 µM,[17],100%
same,remaining binding at 1 µM,[18],57%
same,remaining binding at 1 µM,[19],56%
same,remaining binding at 1 µM,[20],89%
same,remaining binding at 1 µM,[21],83%
same,remaining binding at 1 µM,[22],92%
same,remaining binding at 1 µM,[23],35%
same,remaining binding at 1 µM,[24],4.1%
same,remaining binding at 1 µM,[25],64%
same,remaining binding at 1 µM,[26],100%
same,remaining binding at 1 µM,[27],100%
same,remaining binding at 1 µM,[28],96%
same,remaining binding at 1 µM,[29],100%
same,remaining binding at 1 µM,[30],100%
same,remaining binding at 1 µM,[31],91%
same,remaining binding at 1 µM,[32],100%
same,remaining binding at 1 µM,[33],100%
same,remaining binding at 1 µM,[34],77%
same,remaining binding at 1 µM,[35],59%
same,remaining binding at 1 µM,[36],1%
same,remaining binding at 1 µM,[37],100%
same,remaining binding at 1 µM,[38],100%
"CCN1CCN(Cc2cc(NC(=O)c3ccc(C)c(-c4ccc5nc(NC(=O)C6CC6)cn5n4)c3)cc(C(F)(F)F)c2)CC1 [Compound I-2, 3-(2-(cyclopropanecarboxamido)imidazo[1,2-b]pyridazin-6-yl)-N-(3-((4-ethylpiperazin-1-yl)methyl)-5-(trifluoromethyl)phenyl)-4-methylbenzamide]",remaining binding at 1 µM,[1],26%
same,remaining binding at 1 µM,[2],66%
same,remaining binding at 1 µM,[3],5.1%
same,remaining binding at 1 µM,[4],0.35%
same,remaining binding at 1 µM,[5],7%
same,remaining binding at 1 µM,[6],41%
same,remaining binding at 1 µM,[7],94%
same,remaining binding at 1 µM,[8],72%
same,remaining binding at 1 µM,[9],79%
same,remaining binding at 1 µM,[10],100%
same,remaining binding at 1 µM,[11],97%
same,remaining binding at 1 µM,[12],2.3%
same,remaining binding at 1 µM,[13],19%
same,remaining binding at 1 µM,[14],0.6%
same,remaining binding at 1 µM,[15],3.4%
same,remaining binding at 1 µM,[16],100%
same,remaining binding at 1 µM,[17],96%
same,remaining binding at 1 µM,[18],77%
same,remaining binding at 1 µM,[19],48%
same,remaining binding at 1 µM,[20],100%
same,remaining binding at 1 µM,[21],86%
same,remaining binding at 1 µM,[22],100%
same,remaining binding at 1 µM,[23],45%
same,remaining binding at 1 µM,[24],3.2%
same,remaining binding at 1 µM,[25],78%
same,remaining binding at 1 µM,[26],100%
same,remaining binding at 1 µM,[27],95%
same,remaining binding at 1 µM,[28],90%
same,remaining binding at 1 µM,[29],93%
same,remaining binding at 1 µM,[30],96%
same,remaining binding at 1 µM,[31],100%
same,remaining binding at 1 µM,[32],100%
same,remaining binding at 1 µM,[33],63%
same,remaining binding at 1 µM,[34],94%
same,remaining binding at 1 µM,[35],52%
same,remaining binding at 1 µM,[36],0.55%
same,remaining binding at 1 µM,[37],99%
same,remaining binding at 1 µM,[38],100%
